Results as given in publication PMC8667043, “First-in-Class Inhibitors of the Ribosomal Oxygenase MINA53” (Journal of Medicinal Chemistry, 2021).

Key:
HA-tagged MINA53 = biological target: T1, HA-tagged MINA53 (Homo sapiens, UniProt Q8IUF8); assay: Substrate trapping by anti-HA immunoprecipitation (RPL27A); type: cell-based; conditions: HEK293T, HeLa, U-87MG cells; 100 μM, 18 h
T1 construct: expressed in transfected cells; host or cells: HEK293T, HeLa, U-87MG (transient, pEF6 vector)
Description: (§1) Proteins were transferred onto nitrocellulose or PVDF membranes and incubated with rabbit γ-H2AX (#9718, Cell Signaling Technologies, MA) anti-GAPDH (Sc47724, Santa Cruz Biotechnology, Santa Cruz, CA), rabbit anti-RPL27A (Abcam, ab74731), goat anti-RPL8 (Abcam, ab63941), horseradish peroxidase (HRP)-conjugated anti-HA (Roche, 12013819001), and HRP-conjugated anti-β-actin (Abcam, ab-49900).
(§2) For immunoprecipitation, the cells were harvested on ice and lysed by rotation for 1 h at 4 °C in JIES buffer. The cell debris was subsequently pelleted by centrifugation (10 min at 21 910g at 4 °C), and the supernatant was incubated overnight at 4 °C with Pierce anti-HA agarose beads (Thermo Scientific, 26181). The next day, the beads were washed 6 times with JIES buffer before the immunoprecipitates were eluted for 15 min at 1400 rpm at room temperature using 1 mg/mL HA peptide (Thermo Scientific, 26184) dissolved in JIES buffer. The eluted samples were then prepared in 1× Laemmli loading buffer (6x: 125 mM Tris-HCl [pH 6.8], 6% (w/v) SDS, 50% (v/v) glycerol, 225 mM dithiothreitol (DTT), and 0.1% (w/v) bromophenol blue) and boiled for 5 min for detection by western blot.
Plasmid DNA transfections were performed using a FuGENE 6 transfection reagent (Promega, E2691). Briefly, a transfection mix of DNA and transfection reagent at a ratio of 1:3 was made up in Opti-MEM (Gibco, 31985070) and incubated for 30 min at room temperature before the complexes were added to the cells. A total of 500 ng of DNA was used per mL of culturing medium. The cells were seeded 24 h prior to transfection, and cell treatments were performed 24 h post-transfection.
Figure S18. MINA53 substrate trapping with inhibitors 9 and 10 in cells. HEK293T (A), HeL a (B) and U-87MG (C) cel ls transiently expressing an empty (EV), wild- type (WT) or catalytically […]
control for 18 h prior toanti -HAimmunoprecipitation (IP). Anti -HA IPs were immunoblotted for RPL27A (17 kDa) and HA. β -Actin was used as loading control. […]

U-87MG cells [1] = assay: Western blot of H2AX serine 139 phosphorylation (γ-H2AX); type: cell-based, human; design: dose or concentration left out as unconfirmed; conditions: time-dependent (2, 4, 8 h)
Description: as §1
Figure S19. Western blot analysis and relative densitometric analysis of the phosphorylated form of H2AX (ser139) on U-8 7MG glioma cells exposed for the indicated times to 1 (negative control), […]
Doxorubicin was used as a positive control (0.5 μM, 8 h). GAPDH expression was used as a control loading. Results are express ed as f old changes over […]

U-87MG cells [2] = assay: MTT cell viability, alone or in combination with doxorubicin; combination index; type: cell-based, human; conditions: for combination index value with doxorubicin: less than 1 synergistic, higher than 1 antagonist; for cell viability reduction in cotreatment with doxorubicin: 1 μM doxorubicin + 20 μM compound; for cell viability reduction in cotreatment with doxorubicin / cell viability, single compound treatment / sensitization of U-87MG cells to doxorubicin: 24 h
Description: Twenty-four hours following seeding, exponentially growing cells were treated with the different compounds at concentrations ranging from 10 to 100 μM for 72–120 h. Aqueous DMSO (0.5%, v/v) was used as a control (untreated). Cell viability was determined by the 3-(4,5-dimethylthiazol-2-yl)-2,5-diphenyltetrazolium bromide (MTT) colorimetric assay (Sigma-Aldrich). In summary, exponentially growing cancer cells were seeded in sextuplicate in 96-well culture plates (1.5 × 10^3 cells/well). After 24 h, the compounds were added at concentrations ranging from 10 to 100 μM. The effect of compounds on cancer cell proliferation was assessed by measuring the MTT dye absorbance of the cells as reported.[52] For combination treatments, the cells were treated with each of three compounds, either alone or in combination with doxorubicin. In particular, U-87MG cells were treated with doxorubicin alone or in combination with different MINA53 inhibitors for 24 h. The effect of different compounds or combinations (drug concentration ratio 1:20, doxorubicin: compound) on U-87MG cancer cell viability was assessed by measuring the MTT dye absorbance of cells. The interaction between doxorubicin (Doxo) and different compounds was evaluated based on the combination index (CI) using the CI equation through CalcuSyn software (Biosoft, Cambridge, U.K.). Synergism CI < 0.9, additivity 0.9 < CI < 1.1, antagonism CI > 1.1.

HA-tagged NO66 = biological target: T2, HA-tagged NO66 (Homo sapiens, UniProt Q9H6W3); assay: Substrate trapping by anti-HA immunoprecipitation (RPL8); type: cell-based; conditions: HEK293T cells; 100 μM, 18 h
T2 construct: expressed in transfected cells; host or cells: HEK293T (transient, pEF6 vector)
T2 sequence (Q9H6W3 whole entry): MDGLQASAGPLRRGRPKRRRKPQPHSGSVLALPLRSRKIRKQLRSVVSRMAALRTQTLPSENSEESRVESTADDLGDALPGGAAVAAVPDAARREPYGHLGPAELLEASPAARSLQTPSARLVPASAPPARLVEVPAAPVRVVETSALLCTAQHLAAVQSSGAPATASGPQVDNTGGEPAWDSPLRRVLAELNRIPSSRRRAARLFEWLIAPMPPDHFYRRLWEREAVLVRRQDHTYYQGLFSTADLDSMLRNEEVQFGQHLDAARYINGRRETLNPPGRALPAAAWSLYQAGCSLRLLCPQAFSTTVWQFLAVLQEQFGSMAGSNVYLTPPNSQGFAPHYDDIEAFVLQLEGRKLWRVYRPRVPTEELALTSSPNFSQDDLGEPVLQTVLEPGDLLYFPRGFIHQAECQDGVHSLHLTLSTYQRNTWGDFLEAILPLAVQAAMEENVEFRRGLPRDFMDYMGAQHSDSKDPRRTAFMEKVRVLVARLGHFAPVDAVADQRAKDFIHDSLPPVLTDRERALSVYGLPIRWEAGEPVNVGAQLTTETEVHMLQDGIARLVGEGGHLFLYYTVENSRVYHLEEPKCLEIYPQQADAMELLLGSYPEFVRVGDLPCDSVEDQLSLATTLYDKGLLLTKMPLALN
Description: as §1, §2
Plasmid DNA transfections were performed using a FuGENE 6 transfection reagent (Promega, E2691). […]

KDM6 = assay: Immunofluorescence of histone methyl mark H3K27me3 in U-87MG cells; type: cell-based, human; conditions: 50 μM, 48 h
Description: (§3) For immunofluorescence (IF) analysis, 50 × 10^4 U-87MG cells were grown on sterile coverslips. Twenty-four hours after plating, the cells were treated with the different compounds (IOX-1 at 100 μM, GSK-J4 at 10 μM, CPI-455 at 25 μM, and both MINA53 inhibitors 9 and 10 at 50 μM) for 48 h. IF staining for different trimethylated lysine residues of histone H3 ([…]) were carried out on PFA-fixed cells blocked with 20% goat serum in PBS (1 h, RT) and incubated overnight at 4 °C with primary rabbit polyclonal antibodies against H3K4me3 (Cell Signaling, C42D8, 1:400), H3K9me3 (Cell Signaling, D4W1U, 1:400), and H3K27me3 (Cell Signaling, C36B11, 1:400). Primary antibodies were detected using rabbit anti-IgG secondary antibodies conjugated with either Cy3 (Jackson Immunoresearch 711-165-152). DNA was stained using 0.05 μg/mL 4′,6-diamidino-2-phenylindole (DAPI), and after washing, the coverslips were mounted in Vectashield mounting media. […]
(§4) For quantification of fluorescence intensity signals, images of untreated or treated cells were analyzed and processed using open-source Cell Profiler 4.1.3 image analysis software (https://cellprofiler.org/) to measure fluorescence-integrated intensity values for antibody-binding relating to individual cells. […]

KDM4 = assay: Immunofluorescence of histone methyl mark H3K9me3 in U-87MG cells; type: cell-based, human; conditions: 50 μM, 48 h
Description: as §3, §4

KDM5 = assay: Immunofluorescence of histone methyl mark H3K4me3 in U-87MG cells; type: cell-based, human; conditions: 50 μM, 48 h
Description: as §3, §4

T1 sequence (Q8IUF8 whole entry): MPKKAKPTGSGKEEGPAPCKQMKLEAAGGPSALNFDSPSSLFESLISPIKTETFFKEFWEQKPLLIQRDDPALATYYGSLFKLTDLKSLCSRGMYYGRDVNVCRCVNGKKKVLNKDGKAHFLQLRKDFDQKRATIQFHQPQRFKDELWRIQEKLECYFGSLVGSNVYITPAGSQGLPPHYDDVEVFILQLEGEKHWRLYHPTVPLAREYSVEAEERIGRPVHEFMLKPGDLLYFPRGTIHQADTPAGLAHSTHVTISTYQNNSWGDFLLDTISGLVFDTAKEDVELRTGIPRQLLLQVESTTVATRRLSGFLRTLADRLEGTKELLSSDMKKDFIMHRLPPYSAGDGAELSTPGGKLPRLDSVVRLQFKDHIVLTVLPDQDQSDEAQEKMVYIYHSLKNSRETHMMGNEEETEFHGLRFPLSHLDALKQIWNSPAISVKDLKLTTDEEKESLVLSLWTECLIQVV

SMILES	binding (trapping) of endogenous RPL27A substrate to HA-tagged MINA53 (HA-tagged MINA53)	γ-H2AX (H2AX serine 139 phosphorylation) (U-87MG cells [1])	combination index value with doxorubicin (U-87MG cells [2])	trapping of RPL8 with HA-tagged NO66 (HA-tagged NO66)	level of histone methyl mark H3K27me3 (KDM6 selectivity) (KDM6)	level of histone methyl mark H3K9me3 (KDM4 selectivity) (KDM4)	level of histone methyl mark H3K4me3 (KDM5 selectivity) (KDM5)	cell viability reduction in cotreatment with doxorubicin (U-87MG cells [2])	cell viability, single compound treatment (U-87MG cells [2])	sensitization of U-87MG cells to doxorubicin (U-87MG cells [2])
O=C(O)c1c[nH]c(=S)[nH]c1=O [compound 1]	not	not increased	higher than 1							
O=C(O)c1cnc(SCCc2ccccc2)[nH]c1=O [compound 9, 2-(Phenethylthio)-3,4-dihydro-4-oxopyrimidine-5-carboxylic Acid]	increased binding	strong γ-H2AX increase	less than 1	did not observe evidence	did not observe any evidence for an increase	did not observe any evidence for an increase	did not observe any evidence for an increase	around 75%	reduced cell viability in a dose-dependent manner	dose-dependent sensitization
O=C(O)c1cnc(SCCCc2ccccc2)[nH]c1=O [compound 10, 2-((3-Phenylpropyl)thio)-3,4-dihydro-4-oxopyrimidine-5-carboxylic Acid]	increased binding	strong γ-H2AX increase	less than 1	did not observe evidence	did not observe any evidence for an increase	did not observe any evidence for an increase	did not observe any evidence for an increase	around 75%	reduced cell viability in a dose-dependent manner	dose-dependent sensitization
